Measured values as given in patent publication US6096725A, “Methods of using αGal oligosaccharides as immune system targeting agents” (Neose Technologies, Inc., priority 1997, dated 2000).

Tests used:
[1] = Human dose and half-life estimates extrapolated from baboon pharmacokinetics; settings: human patient of 70 Kg
Procedure: ^1 To achieve a steady state serum concentration for monovalent αGal pentasaccharide of 1 mM (i.e., 0.9 mg/mL) in a human patient of 70 Kg, it is estimated that a loading dose of 412 mg/Kg be administered in the form of a bolus or 15 minute infusion, followed by a continuous infusion of 30 g/h over a 14 day period (see Table 2 for further αGal trisaccharide and αGal pentasaccharide 2 infusion regimens).
The clearance is used to calculate the infusion rate needed to maintain a desired drug concentration. The half-life describes how quickly concentrations diminish with time. Mathematical formulations known in the art were applied to estimate the pharmacokinetic parameters of the αGal trisaccharide and αGal pentasaccharide. […] Compared to other drugs, the volumes of distribution of these oligosaccharides are low, less than the extravascular water volume (<400 mL/kg). The clearance is typical of compounds eliminated by GFR (glomerular filtration rate).

[2] = system: anti-αGal IgG and IgM antibodies; assay: In vitro mouse laminin ELISA: soluble oligosaccharides as neutralizers of anti-αGal antibodies; type: binding; settings: serum pre-incubated with oligosaccharide 1 hour 37° C.; result in words
From the text: In vitro laminin ELISA evaluation of αGal oligosaccharides as neutralizers of anti-αGal antibodies. Mouse laminin is a basement membrane glycoprotein that expresses 50-70 oligosaccharides terminating in Galα1-3Gal, i.e., the αGal motif (Arumugham et al., 1986, Biochem. Biophys. Aeta 883:112). In this assay, immobilization of mouse laminin on microtiter plates serves as a capture ligand for anti-αGal antibodies. […] The example provides a method by which to determine the ability of αGal oligosaccharides and pharmaceutically acceptable derivative of the invention to bind to anti-αGal antibodies and to thereby remove these antibodies from the serum, neutralize anti-αGal antibodies, and/or target anti-αGal directed complement-mediated lytic attack to specific tissue or cell types. The example also provides a method by which the effectiveness of the methods of the invention can be evaluated and dosages determined.
Sera were mixed with serial dilutions of αGal oligosaccharides (αGal-CHO) at 37° C. for 1 hour, then added to mouse laminin-coated microtiter plates and incubated for 1 hour to allow binding. The microtiter plates were coated with 20 μg/mL mouse laminin in 50 mM NaHCO3 buffer, pH 9.5 at 4° C. overnight, blocked with SuperBlock solution (Pierce) for 2 hours, and then washed 3 times with SuperBlock solution. After washing excess serum away, bound IgG and IgM was measured by adding goat anti-human IgG (or IgM) conjugated to alkaline phosphatase and incubating for 1 hour, washing, and adding substrate (pNPP).

CC(=O)N[C@H]1[C@H](O[C@H]2[C@@H](O)[C@@H](CO)O[C@@H](O[C@H]3[C@H](O)[C@@H](O)C(O)O[C@@H]3CO)[C@@H]2O)O[C@H](CO)[C@@H](O[C@@H]2O[C@H](CO)[C@H](O)[C@H](O[C@H]3O[C@H](CO)[C@H](O)[C@H](O)[C@H]3O)[C@H]2O)[C@@H]1O (stereo partly drawn) [αGal pentasaccharide, Galα1-3Galβ1-4GlcNAcβ1-3Galβ1-4Glc]
Estimated continuous infusion ([1]; 1 mM steady state, over a 14 day period): 30 g/h
Estimated loading dose (bolus or 15 minute infusion) ([1]; steady state serum concentration 1 mM (0.9 mg/mL)): 412 mg/kg
Inhibition of anti-αGal IgG and IgM antibody binding to immobilized mouse laminin [2]: slightly better inhibitor of both IgG and IgM binding to laminin than αGal disaccharide
